Consider 6 molecules from BindingDB's records for doi:10.1073/pnas.83.22.8784 (The Oregon Health Sciences University, 1986).

Structures are written as SMILES. Bounds are passed on as bounds.

Assay [1] concerns the target T1, Alpha-2C adrenergic receptor (Rattus norvegicus, UniProt P22086).
T1 sequence (P22086 whole entry): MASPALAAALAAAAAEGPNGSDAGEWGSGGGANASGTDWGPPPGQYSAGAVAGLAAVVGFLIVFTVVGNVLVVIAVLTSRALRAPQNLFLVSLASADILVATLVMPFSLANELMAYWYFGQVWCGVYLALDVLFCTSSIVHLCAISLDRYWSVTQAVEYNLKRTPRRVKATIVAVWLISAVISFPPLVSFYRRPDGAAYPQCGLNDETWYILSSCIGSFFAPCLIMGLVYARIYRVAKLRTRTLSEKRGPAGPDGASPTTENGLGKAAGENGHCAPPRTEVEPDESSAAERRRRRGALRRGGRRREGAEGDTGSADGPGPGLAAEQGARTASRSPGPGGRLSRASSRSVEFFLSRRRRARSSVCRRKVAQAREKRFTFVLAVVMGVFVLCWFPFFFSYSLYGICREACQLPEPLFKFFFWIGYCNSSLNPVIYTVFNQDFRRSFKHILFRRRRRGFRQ

For assay [2], the target named is T2, Alpha-1A adrenergic receptor (Rattus norvegicus, UniProt P43140).
T2 sequence (P43140 whole entry): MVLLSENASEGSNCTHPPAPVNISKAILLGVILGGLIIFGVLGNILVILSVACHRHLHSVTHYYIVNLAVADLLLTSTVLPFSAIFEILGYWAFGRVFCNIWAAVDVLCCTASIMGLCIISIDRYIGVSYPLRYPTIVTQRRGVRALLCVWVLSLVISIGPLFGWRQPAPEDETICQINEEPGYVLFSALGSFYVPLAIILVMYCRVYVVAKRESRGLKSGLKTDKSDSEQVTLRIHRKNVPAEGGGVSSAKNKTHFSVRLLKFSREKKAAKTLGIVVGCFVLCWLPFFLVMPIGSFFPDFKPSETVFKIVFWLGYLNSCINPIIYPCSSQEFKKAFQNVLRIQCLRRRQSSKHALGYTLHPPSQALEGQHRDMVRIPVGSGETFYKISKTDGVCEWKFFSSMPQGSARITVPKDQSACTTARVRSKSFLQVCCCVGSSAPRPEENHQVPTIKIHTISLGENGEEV

Assay [3] addresses 5-hydroxytryptamine receptor 2A (Rattus norvegicus, UniProt P14842).

Chain of 5-hydroxytryptamine receptor 2A (P14842 whole entry): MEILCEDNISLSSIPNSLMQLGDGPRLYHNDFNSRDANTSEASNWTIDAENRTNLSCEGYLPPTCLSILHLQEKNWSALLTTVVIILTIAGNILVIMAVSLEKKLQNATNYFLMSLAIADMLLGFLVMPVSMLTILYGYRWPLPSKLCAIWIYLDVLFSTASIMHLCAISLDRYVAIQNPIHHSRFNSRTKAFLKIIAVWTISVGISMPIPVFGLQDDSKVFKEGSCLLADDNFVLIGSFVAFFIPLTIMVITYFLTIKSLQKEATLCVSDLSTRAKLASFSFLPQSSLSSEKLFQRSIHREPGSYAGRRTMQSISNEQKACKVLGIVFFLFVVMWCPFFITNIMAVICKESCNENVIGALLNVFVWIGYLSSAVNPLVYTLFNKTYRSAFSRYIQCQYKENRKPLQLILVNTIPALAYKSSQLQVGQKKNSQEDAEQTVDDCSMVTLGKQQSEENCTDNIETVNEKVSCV

On to `O=C(c1ccc(F)cc1)C1CCN(CCn2c(=O)[nH]c3ccccc3c2=O)CC1` [3-(2-{4-[(4-fluorophenyl)carbonyl]piperidin-1-yl}ethyl)-1,2,3,4-tetrahydroquinazoline-2,4-dione], for which the Ki in assay [1] came out at 295 nM; in assay [2], 72.4 nM.

Consider `Cc1nc2ccccn2c(=O)c1CCN1CCC(=C(c2ccc(F)cc2)c2ccc(F)cc2)CC1` [NSC_159037], for which the inhibition constant (Ki) stood at 282 nM in assay [1], 257 nM in assay [2] and 6 nM in assay [3].

Consider `Cn1c(=O)c2c(ncn2CCN2CCC(C(=O)c3ccc(F)cc3)CC2)n(C)c1=O` [NSC_71255], for which the Ki in assay [1] was found to be 417 nM; in assay [2], 120 nM; in assay [3] it was 4.5 nM.

Turning to `Cc1nc2sccn2c(=O)c1CCN1CCC(=C(c2ccc(F)cc2)c2ccc(F)cc2)CC1`, the Ki in assay [1] came to 631 nM; in assay [2] it was 191 nM.

For the molecule `NC(N)=NN=Cc1c(Cl)cccc1Cl` [Guanabenz], the Ki is greater than 10000 nM in assay [1] and 200 nM in assay [3].

As for `O=C(c1ccc(F)cc1)C1CCN(CCCCn2c(=O)[nH]c3ccccc3c2=O)CC1` [CAS_87051-46-5], the figures for the inhibitory constant (Ki) in assay [1] and in assay [2] were 75.9 nM and 1.86 nM, respectively.

The term Ki denotes a dissociation constant, usually derived from enzyme kinetics or from competition with a known ligand. A lower Ki goes with a stronger hold on the target.
